Data published in US9555061B2, “Synthesis and analysis of compounds capable of inducing differentiation of human mesenchymal stems cells into hepatocytes” (National University Corporation Torrori University, priority 2011, dated 2017).
Read-outs that look alike come from different tables or passages of the source.

Key:
[1] = test system: Wnt/β-catenin signaling pathway; assay: Ability of inhibiting Wnt/β-catenin pathway, luciferase assay (UE7T-13); assay type: cell-based, human; conditions: 8 days after the treatment; pTCF4-CMV-luciferase reporter
Text: FIG. 3 is a schematic diagram illustrating how to establish a human mesenchymal stem cell stably expressing a β-catenin/TCF4/luciferase reporter gene. FIG. 3 illustrates how to construct pTCF4-CMVpro-GL4.20 plasmid by using a luciferase expression vector. The pTCF4-CMVpro-GL4.20 plasmid contains three TCF4 sequences […] upstream of a CMV promoter to express luciferase. In addition, pCMVpro-GL4.20 plasmid was constructed as a control. The resulting plasmids were each linearized, introduced into UE7T-13 by electroporation, and selected using puromycin (0.25 μg/ml) supplemented in a medium. Puromycin-resistant cells were cloned and used for a luciferase assay.
The cell line having a vector stably expressing luciferase was seeded on a 24-well plate, and was cultured at 37° C. At the next day, the medium was changed to a medium containing IC-2, etc., and the cell line was further cultured at 37° C. After that, at days 1, 4, and 8, a luciferase assay system (Promega) was used and the luciferase activity was read with a fluorescence plate reader (ARVO) at a wavelength of 556 nm.

UE7T-13 cells [2] = conditions: human
UE7T-13 cells [3] = assay: Periodic acid-Schiff (PAS) staining (UE7T-13); assay type: cell-based, human
Experimental: (3-4) Periodic Acid-Schiff (PAS) Staining (UE7T-13) A cover glass (22×22 mm, […]) was sterilized with 70% EtOH and placed in a 6-well plate. Next, cells were seeded on the cover glass and cultured in a medium containing IC-2, etc. At 8, 16, and 24 days after the initiation of the culture, the cells were washed twice with PBS. Then, the cells were treated with 4% paraformaldehyde/PBS for 20 min and fixed onto the cover glass. As a negative control, 10 mg/ml of α-amylase (10 mg/ml; in 0.1 M phosphate buffer solution at pH 6.8) was added, and the cells were incubated therewith at 37° C. for 1 h to digest their glycogen. Subsequently, 1% aqueous periodic acid was used for oxidation treatment for 10 min. After that, the cells were treated with a Schiff reagent for 15 min to stain glycogen. Then, the cells were washed three times with aqueous sulfurous acid and were washed three times with distilled water. After their nuclei were stained with Mayer's hematoxylin, 50% glycerol diluted with PBS was used to mount the cover glass. Finally, the cells were observed under a light microscope. The cells which had been cultured with 0.1% DMSO were used as a control.

β-catenin/Tcf complex = conditions: Drug Discov. Today 2005, 10, 1467-1474; cited from earlier work
[4] = test system: clinical specimen-derived mesenchymal stem cells; assay: RT-PCR of hepatocyte differentiation marker in clinical specimen-derived mesenchymal stem cells; assay type: cell-based, human; conditions: hexachlorophene 4 μM, HC-2 20 μM, PN-3-13 20 μM, IC-2 40 μM
Experimental: A fresh bone marrow aspirate was collected under informed consent from a patient (a person) with osteoarthritis who underwent replacement arthroplasty at the Department of Orthopedic Surgery, Tottori University Hospital. This aspirate was subjected to density gradient centrifugation using ficoll (Amersham Biosciences) to separate bone marrow mononuclear cells (FIG. 31). These bone marrow mononuclear cells were suspended in 1 ml of Hanks' balanced salt solution (HBSS, Gibco, Life Technologies Corp.) supplemented with a 100-fold diluted APC-labeled anti-CD90 antibody, a 407-fold diluted PE-labeled anti-CD271 antibody, and 2% fetal bovine serum (FBS, Defined, Thermo Fisher Scientific Inc.), and were stained on ice for 30 min. A flow cytometer (MoFlo XDP, Beckman Coulter Inc.) was used to selectively separate mesenchymal stem cells. The resulting cells were cultured in Dulbecco's Modified Eagle's Medium (Low Glucose, Gibco, Life Technologies Corp.) containing 20% FBS, 100 U/ml penicillin, […] streptomycin (Nacalai Tesque), and 20 ng/ml basic fibroblast growth factor (TRANS GENIC INC., Ltd.) on a 35-mm dish under conditions at 37° C. and 5% CO2. The medium was changed every 4 days. After colonies were formed, the cells were detached using a 0.025% trypsin/1 mM EDTA solution (Nacalai Tesque), split on a 100-mm dish, and cultured under conditions at 37° C. and 5% CO2. Then, the cells which were kept 70 to 80% confluent were detached using trypsin treatment. These cells in one dish were divided into four dishes for passage.
Cells were seeded on a 6-well plate at a cell density of 1.8×10^4 cells/cm^2. This day was designated as day 0. At day 1 corresponding to the next day, the medium was changed to a medium containing any one of hexachlorophene (at a final concentration of 4 μM), HC-2 (at a final concentration of 20 μM), PN-3-13 (at a final concentration of 20 μM), IC-2 (at a final concentration of 40 μM), and 0.1% DMSO. […]

[5] = test system: clinical specimen-derived mesenchymal stem cells; assay: Immunofluorescence staining in clinical specimen-derived mesenchymal stem cells; assay type: cell-based, human; conditions: day 8; PN-3-13 20 μM, IC-2 40 μM
Experimental: A cover glass that had been sterilized with 100% ethanol was placed on a 12-well plate. Cells were seeded on the cover glass at a cell density of 1.8×10^4 cells/cm^2. This day was designated as day 0. At day 1 corresponding to the next day, the medium was changed to a medium containing HC-2 (at a final concentration of 20 μM), PN-3-13 (at a final concentration of 20 μM), IC-2 (at a final concentration of 40 μM), or 0.1% DMSO. At day 4, the medium was changed in a manner similar to that at day 1. At day 8, the culture medium was removed and the cells were washed twice with PBS. Then, in order to perform immunostaining of albumin, the cells were fixed for 20 min with 4% paraformaldehyde (Nacalai Tesque) containing 8% sucrose (Wako Pure Chemical Industries, Ltd.). For immunostaining of C/EBPα or CYP1A1, the cells were fixed for 20 min with 4% paraformaldehyde. After that, the cells were permeated with 0.2% Triton X-100 (Wako Pure Chemical Industries, Ltd.) for 10 min and were then blocked in 3% BSA (Nacalai Tesque) at room temperature for 30 min without shaking.
After the primary antibody reaction, the cells were washed with 0.1% BSA/PBS. […] The cells were incubated with each antibody, and were kept in a dark condition at room temperature for 1 h to carry out a secondary antibody reaction. Their nuclei were stained with DAPI (Cell Signaling Technology Inc.). […]

[6] = test system: CD90+CD271+ bone marrow-derived mesenchymal stem cells; assay: Urea assay in CD90+CD271+ bone marrow-derived mesenchymal stem cells; assay type: cell-based, human; conditions: hexachlorophene 4 μM, PN-3-13 20 μM, IC-2 40 μM; day 8 plus 96 h ammonium chloride
Experimental: A urea assay was performed according to the following protocol. CD90^+CD271^+ bone marrow-derived mesenchymal stem cells were seeded on a 24-well plate at a cell density of 1.8×10^4 cells/cm^2. This day was designated as day 0. At day 1 corresponding to the next day, each medium was changed to a medium containing hexachlorophene (at a final concentration of 4 μM), HC-2 (at a final concentration of 20 μM), PN-3-13 (at a final concentration of 20 μM), IC-2 (at a final concentration of 40 μM), or 0.1% DMSO. At day 4, the medium was changed in a manner similar to that at day 1, and the cells were cultured until day 8. At day 8, the medium was removed, and replaced with a medium containing ammonium chloride (Nacalai Tesque) at a final concentration of 5 mM. The cells were further cultured for 96 h. At 96 h after the addition of ammonium chloride, levels of urea in the medium were determined using a QuantiChrom Urea Assay Kit (BioAssay Systems) according to the attached protocol by reading the absorbance at a wavelength of 520 nm with a microplate reader. The levels of urea were calculated based on a standard sample according to the attached calculation method. As a negative control for the urea assay, used were CD90^+CD271^+ bone marrow-derived mesenchymal stem cells that were seeded one day before the day of the immunostaining and were not subjected to the differentiation induction.

[7] = test system: clinical specimen-derived mesenchymal stem cells; assay: PAS staining in clinical specimen-derived mesenchymal stem cells; assay type: cell-based, human; conditions: day 8, PN-3-13 20 μM, IC-2 40 μM
Experimental: PAS staining was performed according to the following procedure. A cover glass that had been sterilized with 100% ethanol was placed on a 12-well plate. Cells were seeded on the cover glass at a cell density of 1.8×10^4 cells/cm^2. This day was designated as day 0. At day 1 corresponding to the next day, each medium was changed to a medium containing HC-2 (at a final concentration of 20 μM), PN-3-13 (at a final concentration of 20 μM), IC-2 (at a final concentration of 40 μM), or 0.1% DMSO. At day 4, the medium was changed in a manner similar to that at day 1, and the cells were cultured until day 8. At day 8, the cells were washed twice with PBS and were fixed with 4% paraformaldehyde for 30 min. As a negative control, α-amylase (Nacalai Tesque) at a final concentration of 10 mg/ml was added, and the cells were incubated therewith at 37° C. for 1 h to digest their glycogen. Subsequently, the cells were treated with 1% aqueous periodic acid for 5 min. Then, the cells were treated with a Schiff reagent (Nacalai Tesque) for 15 min to stain glycogen. After that, the cells were washed three times with aqueous sulfurous acid and were then washed three times with distilled water. The nuclei were stained with Mayer's Hematoxylin (MUTO PURE CHEMICALS CO., LTD.) for 1 min. […]

UE7T-13 cells [8] = assay: Proliferation potential (toxicity), MTT assay (UE7T-13); conditions: days 2, 4, 8 of treatment

| SMILES | concentration that significantly inhibited the Wnt/β-catenin signaling pathway [1] [µM] | concentration with very low cell toxicity toward UE7T-13 cells (UE7T-13 cells [2]) [µM] | intracellular glycogen accumulation compared with negative control (0.1% DMSO) (UE7T-13 cells [3]) | antagonism of transcriptional activation by a β-catenin/Tcf complex (β-catenin/Tcf complex) | expression of albumin [4] | levels of expression of albumin, C/EBPα, and CYP1A1 compared with negative control (0.1% DMSO) [5] | cellular urea synthesis compared with negative control (0.1% DMSO) [6] | cellular glycogen accumulation compared with negative control (0.1% DMSO) [7] | concentration with very low cell toxicity toward UE7T-13 cells (UE7T-13 cells [8]) [µM] |
| --- | --- | --- | --- | --- | --- | --- | --- | --- | --- |
| COc1c(Cl)cc(Cl)c(Cl)c1Cc1c(Cl)c(Cl)cc(Cl)c1OC [HC-1, bis(2,3,5-trichloro-6-methoxyphenyl)methane] | ≥ 2 | ≤ 8 |  |  |  |  |  |  |  |
| O=C1[C@H](Cc2ccc(O)cc2)N2C(=O)CCN(C(=O)NCc3ccccc3)[C@H]2CN1Cc1cccc2ccccc12 [ICG-001] |  |  | did not increase | potent antagonist |  |  |  |  |  |
| O=C(N/N=C/c1c(F)c(F)c(F)c(F)c1F)c1ccccc1Oc1ccccc1 [PN-3-13, N′-[(E)-pentafluorophenylmethylidene]-2-phenoxybenzohydrazide] | ≥ 9 |  |  |  | induced | apparently increased | apparent increase | apparent increase | ≤ 10 |
